From patent EP1433789A1, “Pyrrolopyrazines and their use as selective apoptosis inducers” (Aponetics AG, priority 2002, dated 2004)

What was measured:
Experiment in all cases: Caspase dependencies (Hoechst 33342 readout with zVAD / zFA)
Format in all cases: cell-based, human
Parameters in all cases: key: 0: no effect; 1: weak effect; 2: strong effect
Jurkat = tested on: Jurkat
Procedure: (§1) This assay is performed in 96 well tissue culture plates. Appropriate number of cells (adherent cells: 3 - 5*10^3, suspension cells: 8 - 10*10^3) are being seeded out in 80 µl complete medium. Adherent cells are incubated for 24 h for proper spreading out before addition of test compounds while suspension cells are immediately treated with test compounds after seeding out. The test compounds are added in 20 µl complete medium containing max 5% DMSO. The final compound concentrations in the assays are 10 µM, 3 µM,1 µM and 0.3 µM, respectively. After 24 h or 48 h incubation at culture conditions, 10 µl medium containing Hoechst 33342 dye (Sigma B-2261) at 2-5 µg/ml are added to each well. The assay plates are then further incubated for 30 minutes and subsequently analyzed with a standard inverted fluorescence microscope. The readout allows the determination of the fraction of apoptotic nuclei as well as other morphological criteria specific for apoptosis as a function of the treatment. The following scores are used: 0 relating to no activity, 1 relating to weak activity comprising less than 50% of the cells and score 2 relating to strong activity comprising more than 50% of the cells.
(§2) Caspase dependencies are being evaluated by combining the compound treatment with the pan-caspase inhibitor zVAD or its control peptide zFA (ICN Pharmaceuticals # FK009 and FK029, respectively). Both peptides are being used at 20 µM concentration. In case of caspase dependencies a clear inhibition of the specific readout in all apoptosis tests should be detected. By comparing the readout of zVAD and zFA treated samples with the compound control it is possible to detect caspase resp. cystein proteinase dependencies. In case of inhibition by zVAD but not by zFA a clear caspase dependency is obvious. An inhibition by zVAD as well as by zFA points towards the involvement of cystein proteinases in the apoptotic cascade. […]

KB = tested on: KB
Procedure: as §1, §2

K562 = tested on: K562
Procedure: as §1, §2

HeLa = tested on: HeLa
Procedure: as §1, §2

In the case of `CC1(C)Cc2ccccc2-c2c(Br)c3nc4ccccc4nc3n21` [No. 2, 13-Bromo-6,6-dimethyl-5,6-dihydro-6a,7,12-triaza-dibenzo[a,h]fluorene], the “nuclear fragmentation visualized by Hoechst 33342 staining” value (“nuclear fragmentation visualized” below) (Jurkat; 24h, conc 3, no peptide) is reported as 2, the “nuclear fragmentation visualized” value (Jurkat; 24h, conc 3, with zFA 20 µM) is reported as 2 and the “nuclear fragmentation visualized” value (Jurkat; 24h, conc 3, with zVAD 20 µM) is reported as 2. For the same molecule, the “nuclear fragmentation visualized” value (Jurkat; 48h, conc 3, no peptide) was 2, the “nuclear fragmentation visualized” value (Jurkat; 48h, conc 3, with zFA 20 µM) was 2 and the “nuclear fragmentation visualized” value (Jurkat; 48h, conc 3, with zVAD 20 µM) was 2. For the same molecule, the “nuclear fragmentation visualized” value (KB; 24h, conc 10, no peptide) was 2, the “nuclear fragmentation visualized” value (KB; 24h, conc 10, with zFA 20 µM) was 1 and the “nuclear fragmentation visualized” value (KB; 24h, conc 10, with zVAD 20 µM) was 1. For the same molecule, the “nuclear fragmentation visualized” value (KB; 48h, conc 10, no peptide) was 2, the “nuclear fragmentation visualized” value (KB; 48h, conc 10, with zFA 20 µM) was 2 and the “nuclear fragmentation visualized” value (KB; 48h, conc 10, with zVAD 20 µM) was 2. The “nuclear fragmentation visualized” value (K562; K562, 24h, conc 10, no peptide) was 2, the “nuclear fragmentation visualized” value (K562; K562, 24h, conc 10, with zFA 20 µM) was 2 and the “nuclear fragmentation visualized” value (K562; K562, 24h, conc 10, with zVAD 20 µM) was 2. For the same molecule, the “nuclear fragmentation visualized” value (K562; K562, 48h, conc 10, no peptide) was 2, the “nuclear fragmentation visualized” value (K562; K562, 48h, conc 10, with zFA 20 µM) was 2 and the “nuclear fragmentation visualized” value (K562; K562, 48h, conc 10, with zVAD 20 µM) was 2. The “nuclear fragmentation visualized” value (HeLa; 24h, conc 10, no peptide) was 2, the “nuclear fragmentation visualized” value (HeLa; 24h, conc 10, with zFA 20 µM) was 2 and the “nuclear fragmentation visualized” value (HeLa; 24h, conc 10, with zVAD 20 µM) was 1. The “nuclear fragmentation visualized” value (HeLa; 48h, conc 10, no peptide) was 2, the “nuclear fragmentation visualized” value (HeLa; 48h, conc 10, with zFA 20 µM) was 2 and the “nuclear fragmentation visualized” value (HeLa; 48h, conc 10, with zVAD 20 µM) was 2.
